Measured values: patent US5098900A, “3(2H)pyridazinone, process for its preparation and anti-allergic agent containing it” (Nissan Chemical Industries Ltd., priority 1984, dated 1992)

System: LTD4
Experiment: LTD4 antagonism in isolated guinea-pig trachea (LTD4-induced contraction)
Assay type: cell-based
Conditions: Cavia porcellus, 5 min, test compound 10^-5 g/ml, LTD4 2×10^-8 g/ml
Experimental: (ii) LTC4 and LTD4 antagonisms in guinea-pig trachea
Antagonism for LTC4 and LTD4 were determined in isolated guinea-pig trachea prepared as spiral strip. 10 Tracheal preparations were suspended under 1 g tension in […] and they were incubated for 1 hr prior to use. Contractile responses to LTC4 (2×10^-8 g/ml) and LTD4 (2×10^-8 g/ml) were obtained after the maximal response to histamine (10^-4 M). Test compounds dissolved in 100% dimethyl sulfoxide were added to the organ baths (final concentration of 10^-5 g/ml) 5 min prior to LTC4 and LTD4 addition, and then contractile responses to LTC4 and LTD4 were compared with those of control which was obtained from a paired trachea in the absence of test compounds. LTC4 - and LTD4 -induced contractions were expressed as a percentage of the maximal response to histamine. The antagonism was determined as follows: Antagonism (%)=(1.0-% contraction in test/% contraction in control)×100

Row | Compound | inhibition at 10 µg/mL [%]
1 | CCn1ncc(NCc2cc(OC)c(OC)c(OC)c2)c(Cl)c1=O [compound 121] | 31
2 | CCOc1ccc(CNc2cnn(C(C)C)c(=O)c2Cl)cc1OC [compound 107] | 65
3 | CCCn1ncc(NCc2ccc(N(C)C)cc2)c(Cl)c1=O [compound 126] | 63
4 | Cc1ccc(CNc2cnn(C(C)C)c(=O)c2Br)c(C)c1 [compound 168] | 99
5 | CCCOc1cc(CNc2cnn(C(C)C)c(=O)c2Br)ccc1OC [compound 167] | 96
6 | COc1cc(CNc2cnn(C(C)C)c(=O)c2Cl)cc(OC)c1 [compound 98] | 55
7 | CCc1cc(CNc2cnn(C(C)C)c(=O)c2Cl)ccc1O [compound 131] | 52
8 | CCCCCOc1cc(CNc2cnn(CC)c(=O)c2Cl)ccc1OC [compound 19] | 66
9 | CCn1ncc(NCc2ccc(N(C)C)cc2)c(Cl)c1=O [compound 46] | 49
10 | CC(C)n1ncc(NCc2ccc(Cl)cc2)c(Cl)c1=O [compound 123] | 88
11 | CCCN(CCC)C(=O)c1ccc(CNc2cnn(C(C)(C)C)c(=O)c2Cl)cc1 [compound 39] | 67
12 | COc1cc(CNc2cnn(C(C)C)c(=O)c2Cl)cc(OC)c1OC [compound 122] | 23
13 | COc1ccc(CNc2cnn(C(C)C)c(=O)c2Cl)cc1O [compound 138] | 86
14 | CCCOc1ccc(CNc2cnn(CC)c(=O)c2Cl)cc1OC [compound 108] | 53
15 | CCOc1cc(CNc2cnn(CC)c(=O)c2Cl)ccc1O [compound 136] | 64
16 | CC(C)n1ncc(NCc2cccc(OCCCCCO)c2)c(Cl)c1=O [Compound No. 147, 4-Chloro-5-[3-(5-hydroxy)pentoxybenzylamino]-2-i-propyl-3(2H)pyridazinone] | 73
17 | CCOc1cc(CNc2cnn(C(C)C)c(=O)c2Br)ccc1OC [compound 166] | 100
18 | COc1cccc(CNc2cnn(C(C)C)c(=O)c2Cl)c1 [Compound No. 7] | 92
19 | COc1cccc(CNc2cnn(C(C)C)c(=O)c2Br)c1 [compound 163] | 95
20 | CCCOc1cc(CNc2cnn(C(C)C)c(=O)c2Cl)ccc1OCc1ccccc1 [compound 117] | 25
21 | COc1cccc(CNc2cnn(C(C)(C)C)c(=O)c2Cl)c1 [Compound No. 8] | 53
22 | CCOc1cccc(CNc2cnn(CC)c(=O)c2Cl)c1O [compound 129] | 48
23 | CCCOc1cc(CNc2cnn(CC)c(=O)c2Cl)ccc1O [compound 134] | 75

Row | Compound | inhibition at 10 µg/mL [%]
24 | CCc1c(NCc2ccc(C)cc2)cnn(C(C)(C)C)c1=O [Compound No. 36, 4-Ethyl-5-(4-methylbenzylamino)-2-t-butyl-3(2H)pyridazinone] | 19
25 | CCn1ncc(NCc2ccc(C)cc2C)c(Br)c1=O [compound 158] | 99
26 | CCOc1ccccc1CNc1cnn(C(C)C)c(=O)c1Cl [compound 92] | 92
27 | COCCCCCOc1cccc(CN(C)c2cnn(C(C)C)c(=O)c2Cl)c1 [Compound No. 149, 4-Chloro-5-[3-(5-methoxy)pentoxy-N-methylbenzylamino]-2-i-propyl-3(2H)pyridazinone] | 68
28 | COc1cc(CNc2cnn(C(C)(C)C)c(=O)c2Cl)cc(OC)c1OC [compound 120] | 26
29 | CCOc1cccc(CNc2cnn(C(C)C)c(=O)c2Cl)c1OCc1ccccc1 [compound 114] | 77
30 | COc1ccc(CNc2cnn(C(C)(C)C)c(=O)c2Br)cc1OC [compound 17] | 80
31 | CCOc1cc(CNc2cnn(C(C)C)c(=O)c2Cl)ccc1OCc1ccccc1 [compound 113] | 40
32 | CCn1ncc(NCc2ccc(OC)cc2)c(Br)c1=O [compound 154] | 100
33 | CC(C)n1ncc(N(C)Cc2cccc(OCCCCCO)c2)c(Cl)c1=O [Compound No. 150, 4-Chloro-5-[3-(5-hydroxy)pentoxy-N-methyl-benzylamino]-2-i-propyl-3(2H)pyridazinone] | 57
34 | CCc1cc(CNc2cnn(C(C)C)c(=O)c2Cl)ccc1OC [compound 84] | 96
35 | CCOc1cccc(CNc2cnn(C(C)C)c(=O)c2Cl)c1OC [compound 111] | 72
36 | COc1ccc(CNc2cnn(C(C)C)c(=O)c2)c(OC)c1 [Compound No. 100, 5-(2,4-dimethoxybenzylamino)-2-i-propyl-3(2H)pyridazinone] | 21
37 | CNC(=O)CCCCOc1cccc(CNc2cnn(C(C)C)c(=O)c2Cl)c1 [Compound No. 146, 4-Chloro-5-[3-(4-N-methylaminocarbonyl)butoxybenzylamino]-2-i-propyl-3(2H)pyridazinone] | 32
38 | CCOc1cc(CNc2cnn(CC)c(=O)c2Cl)ccc1OCc1ccccc1 [compound 115] | 73
39 | CCOc1cccc(CNc2cnn(C(C)C)c(=O)c2Cl)c1O [compound 127] | 76
40 | CCOCCCNC(=O)c1ccc(CNc2cnn(C(C)(C)C)c(=O)c2Cl)cc1 [compound 57] | 27
41 | CCCN(CCC)C(=O)c1ccc(CNc2cnn(C(C)C)c(=O)c2Cl)cc1 [Compound No. 125, 4-Chloro-5-(4-di-n-propylaminocarbonylbenzylamino)-2-i-propyl-3(2H)pyridazinone] | 53
42 | CCCOc1cc(CNc2cnn(C(C)C)c(=O)c2C)ccc1OC [compound 153] | 45
43 | CCOc1ccc(CNc2cnn(CC)c(=O)c2Br)cc1 [compound 155] | 60
44 | C=CCNC(=O)c1ccc(CNc2cnn(C(C)(C)C)c(=O)c2Cl)cc1 [Compound No. 54, 4-Chloro-5-(4-allylaminocarbonylbenzylamino)-2-t-butyl-3(2H)pyridazinone] | 10
45 | CCCCCOc1cc(CNc2cnn(C(C)(C)C)c(=O)c2Cl)ccc1OC [compound 20] | 17
46 | CN(C)c1ccc(CNc2cnn(C(C)(C)C)c(=O)c2Br)cc1 [compound 28] | 52

Row | Compound | inhibition at 10 µg/mL [%]
47 | COCCOc1cc(CNc2cnn(C(C)C)c(=O)c2Cl)ccc1OC [compound 148] | 62
48 | CC(C)(C)n1ncc(NCc2ccc(/C=C/C(=O)NCCC(=O)O)cc2)c(Cl)c1=O [Compound No. 61, 4-Chloro-5-[4-(β-carboxyethylaminocarbonyl-2-transethenyl)benzylamino]-2-t-butyl-3(2H)pyridazinone] | 21
49 | CCc1cc(CNc2cnn(CC)c(=O)c2Cl)ccc1OC [compound 85] | 91
50 | CCOc1cccc(CNc2cnn(CC)c(=O)c2Cl)c1OC [compound 110] | 69
51 | CCOc1cccc(CNc2cnn(CC)c(=O)c2Br)c1 [compound 156] | 72
52 | CCOc1cccc(CNc2cnn(C(C)C)c(=O)c2)c1O [compound 128] | 21
53 | CC(C)n1ncc(NCc2cccc(O)c2)c(Cl)c1=O [Compound No. 137, 4-Chloro-5-(3-hydroxybenzylamino)-2-i-propyl-3-(2H)pyridazinone] | 96
54 | CCCOc1cc(CNc2cnn(C(C)C)c(=O)c2Cl)ccc1O [compound 133] | 66
55 | CC(C)n1ncc(NCc2cccc(OCc3ccccc3)c2)c(Cl)c1=O [Compound No. 95, 4-Chloro-5-(3-benzyloxybenzylamino)-2-i-propyl-3-(2H)pyridazinone] | 62
56 | COc1ccc(CNc2cnn(C(C)C)c(=O)c2C)cc1 [Compound No. 151, 4-Methyl-5-(4-methoxybenzylamino)-2-i-propyl-3(2H)-pyridazinone] | 78
57 | CCc1cc(CNc2cnn(CC)c(=O)c2Cl)ccc1O [compound 132] | 61
58 | CCOCCNC(=O)c1ccc(CNc2cnn(C(C)(C)C)c(=O)c2Cl)cc1 [compound 56] | 19
59 | COc1ccc(CNc2cnn(C(C)C)c(=O)c2Cl)cc1OCCCCC(=O)OC(C)(C)C [compound 141] | 90
60 | CCCOc1cc(CNc2cnn(CC)c(=O)c2Cl)ccc1OCc1ccccc1 [compound 118] | 61
61 | CCOc1cc(CNc2cnn(C(C)C)c(=O)c2Cl)ccc1O [compound 135] | 61
62 | CC(C)n1ncc(NCc2ccc(O)cc2)c(Cl)c1=O [compound 130] | 100
63 | CCCOc1cc(CNc2cnn(CC)c(=O)c2Br)ccc1OC [compound 161] | 95
64 | COc1ccc(CNc2cnn(C(C)C)c(=O)c2Cl)cc1OCCCCC(=O)O [compound 143] | 28
65 | CCc1cc(CNc2cnn(C(C)C)c(=O)c2Cl)ccc1OCc1ccccc1 [compound 82] | 46
66 | CC(C)n1ncc(NCc2ccc(OCc3ccccc3)cc2)c(Cl)c1=O [compound 96] | 59
67 | CC(C)n1ncc(NCc2ccc(C=O)cc2)c(Cl)c1=O [Compound No. 140, 4-Chloro-5-(4-formylbenzylamino)-2-i-proyl-3(2H)pyridazinone] | 77

Same assay, conditions: test compound 10^-5 g/ml, LTD4 2×10^-8 g/ml, 5 min

Row | Compound | LTD4 antagonism [%]
68 | CN(C)c1ccc(CNc2cnn(C(C)(C)C)c(=O)c2Br)cc1 [compound 47] | 65
69 | CN(C)CCNC(=O)c1ccc(CNc2cnn(C(C)(C)C)c(=O)c2Cl)cc1 [compound 50] | 12
70 | CC(C)n1ncc(NCc2ccc(N(C)C)cc2)c(Cl)c1=O [compound 45] | 14
71 | CC(C)n1ncc(NCc2ccc(N(C)C)cc2)c(Cl)c1=O [compound 26] | 38
